Experimental data taken from patent US9169209B2, “Compounds and compositions for the inhibition of NAMPT” (FORMA TM, LLC, priority 2011, dated 2015).
Like-named read-outs stand apart in the source and are kept apart here.

What was measured:
A2780 cells = assay: In-Vitro Cell Proliferation Assay (SRB, 72 hours); type: cell-based; settings: Homo sapiens, A2780, 72 h, read-out: A2780 IC50
Experimental: After overnight incubation at 37° C. and 5% CO2, the compound titrations were performed in a separate dilution plate by serially diluting the compounds in DMSO to make a 1000× stock. The compounds were then further diluted to 10× final concentration in culture media, whereupon 20 μL of each dilution was added to the plated cells with controls (e.g. DMSO and blank) to make a final volume of 200 μL. The final DMSO concentration in each well was 0.1%. The plates were then incubated for 72 hours at 37° C. in a 5% CO2 incubator. The number of viable cells was then assessed using sulforhodamine B (SRB) assay. Cells were fixed at 4° C. for 1 hour with the addition of 50 μL 30% trichloroacetic acid (TCA) to make a final concentration of 6% TCA. The plates were washed four times with H2O and allowed to dry for at least 1 hour, whereupon 100 μL of a 4% SRB in 1% acetic acid solution was added to each well and incubated at room temperature for at least 30 minutes. The plates were then washed three times with 1% acetic acid, dried, and treated with 100 μL of 10 mM Tris-Base solution. The plates were then read in a microplate reader at an absorbance of 570 nm. Background was generated on a separate plate with media only.
First, the signals from the background plate are averaged and then the background was subtracted from the test plates.
wherein x denotes the average signal of the compound-treated cells and y denotes the average signal of the DMSO-treated cells.
wherein X denotes the compound concentration 1, Y denotes the compound concentration 2, XX denotes the % inhibition at compound concentration 1 (X), and YY denotes the % inhibition at compound concentration 2 (Y).

NAMPT = NAMPT (Homo sapiens (Human), UniProt P43490); assay: Biochemical Inhibition Assay (NAMPT enzymatic reaction, NMN quantified by mass spectrometry); settings: recombinant His-tagged NAMPT, 33 nM; 1 μM NAM; read-out: Biochem IC50
Experimental: Recombinant His-tagged NAMPT was produced in E. coli cells, purified over a Ni column, and further purified over a size-exclusion column by XTAL Biostructures.
The NAMPT enzymatic reactions were carried out in Buffer A (50 mM Hepes pH 7.5, 50 mM NaCl, 5 mM MgCl2, and 1 mM THP) in 96-well V-bottom plates. The compound titrations were performed in a separate dilution plate by serially diluting the compounds in DMSO to make a 100× stock. […] The compound and enzyme mix was incubated for 15 minutes at room temperature, then 10 μL of 10× substrate and co-factors in Buffer A were added to the test well to make a final concentration of 1 μM NAM, 100 μM 5-Phospho-D-ribose 1-diphosphate (PRPP), and 2.5 mM Adenosine 5′-triphosphate (ATP). The reaction was allowed to proceed for 30 minutes at room temperature, then was quenched with the addition of 11 μL of a solution of formic acid and L-Cystathionine to make a final concentration of 1% formic acid and 10 μM L-Cystathionine. Background and signal strength was determined by addition (or non-addition) of a serial dilution of NMN to a pre-quenched enzyme and cofactor mix.
A mass spectrometry-based assay was used to measure the NAMPT reaction product (NMN) and the internal control (L-Cystathionine). NMN and L-Cystathionine were detected using the services of Biocius Lifesciences with the RapidFire system. In short, the NMN and L-Cystathionine are bound to a graphitic carbon cartridge in 0.1% formic acid, eluted in 30% acetonitrile buffer, and injected into a Sciex 4000 mass spectrometer. The components of the sample were ionized with electrospray ionization and the positive ions were detected. […] The fragments are quantified and the analyzed by the following method.
First the NMN signal is normalized to the L-Cystathionine signal by dividing the NMN signal by the L-Cystathionine signal for each well. The signal from the background wells are averaged and subtracted from the test plates.
Wherein x denotes the average signal of the compound treated wells and y denotes the average signal of the DMSO treated wells.
IC50s are Determined Using Excel and this Formula.
Wherein X denotes the compound concentration 1, Y denotes the compound concentration 2, XX denotes the % inhibition at compound concentration 1 (X), and YY denotes the % inhibition at compound concentration 2 (Y).

[1] = A2780 cells, 72 hours, sulforhodamine B

NAMPT, sequence (P43490 whole entry): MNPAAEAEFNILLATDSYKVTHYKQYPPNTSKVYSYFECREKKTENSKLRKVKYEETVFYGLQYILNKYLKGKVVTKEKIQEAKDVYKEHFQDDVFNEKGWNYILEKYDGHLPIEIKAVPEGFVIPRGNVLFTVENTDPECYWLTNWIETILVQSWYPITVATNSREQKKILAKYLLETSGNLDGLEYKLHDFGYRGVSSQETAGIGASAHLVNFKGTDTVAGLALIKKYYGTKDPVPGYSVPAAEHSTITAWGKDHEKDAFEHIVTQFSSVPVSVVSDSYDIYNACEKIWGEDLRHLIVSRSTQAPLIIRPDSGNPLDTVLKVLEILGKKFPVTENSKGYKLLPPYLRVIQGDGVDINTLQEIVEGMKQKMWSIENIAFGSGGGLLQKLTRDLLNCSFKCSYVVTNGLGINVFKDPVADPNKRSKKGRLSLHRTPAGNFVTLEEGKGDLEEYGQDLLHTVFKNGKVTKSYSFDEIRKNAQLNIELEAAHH

O=C(/C=C/c1cccnc1)Nc1ccc(S(=O)(=O)c2ccc(C(F)(F)F)cc2)cc1 [(2E)-3-(pyridin-3-yl)-N-(4-{[4-(trifluoromethyl)benzene]sulfonyl}phenyl)prop-2-enamide]
IC50 (A2780 cells; [1]): 100 to 1000 nM
IC50 (NAMPT): 56.5 nM

Cc1ccncc1S(=O)(=O)c1ccc(NC(=O)/C=C/c2cccnc2)cc1 [(2E)-N-[4-(4-methylpyridine-3-sulfonyl)phenyl]-3-(pyridin-3-yl)prop-2-enamide]
IC50 (A2780 cells; [1]): 100 to 1000 nM
IC50 (NAMPT): 20.4 nM

Cc1ncccc1S(=O)(=O)c1ccc(NC(=O)/C=C/c2cccnc2)cc1 [(2E)-N-[4-(2-methylpyridine-3-sulfonyl)phenyl]-3-(pyridin-3-yl)prop-2-enamide]
IC50 (A2780 cells; [1]): 100 to 1000 nM
IC50 (NAMPT): 9 nM

CCOc1cc(Cl)ccc1S(=O)(=O)c1ccc(NC(=O)/C=C/c2cccnc2)cc1 [(2E)-N-{4-[(4-chloro-2-ethoxybenzene)sulfonyl]phenyl}-3-(pyridin-3-yl)prop-2-enamide]
IC50 (A2780 cells; [1]): 9.68 nM
IC50 (NAMPT): 4.2 nM

O=C(/C=C/c1cccnc1)Nc1ccc(S(=O)(=O)c2cccc(C(F)(F)F)c2)cc1 [(2E)-3-(pyridin-3-yl)-N-(4-{[3-(trifluoromethyl)benzene]sulfonyl}phenyl)prop-2-enamide]
IC50 (A2780 cells; [1]): 107 nM
IC50 (NAMPT): 31.9 nM

CCN(CC)C(=O)c1cc(Cl)cc(S(=O)(=O)c2ccc(NC(=O)/C=C/c3cccnc3)cc2)c1 [3-chloro-N,N-diethyl-5-({4-[(2E)-3-(pyridin-3-yl)prop-2-enamido]benzene}sulfonyl)benzamide]
IC50 (A2780 cells; [1]): 27.4 nM
IC50 (NAMPT): 19.4 nM

CC(C)COc1cccc(S(=O)(=O)c2ccc(NC(=O)/C=C/c3cccnc3)cc2)c1 [(2E)-N-(4-{[3-(2-methylpropoxy)benzene]sulfonyl}phenyl)-3-(pyridin-3-yl)prop-2-enamide]
IC50 (A2780 cells; [1]): 100 to 1000 nM
IC50 (NAMPT): 56.7 nM

COc1cc(OC)cc(S(=O)(=O)c2ccc(NC(=O)/C=C/c3cccnc3)cc2)c1 [(2E)-N-{4-[(3,5-dimethoxybenzene)sulfonyl]phenyl}-3-(pyridin-3-yl)prop-2-enamide]
IC50 (A2780 cells; [1]): 44.3 nM
IC50 (NAMPT): 20.3 nM

O=C(/C=C/c1cccnc1)Nc1ccc(S(=O)(=O)c2ccc(-n3cccn3)cc2)cc1 [(2E)-N-(4-{[4-(1H-pyrazol-1-yl)benzene]sulfonyl}phenyl)-3-(pyridin-3-yl)prop-2-enamide]
IC50 (A2780 cells; [1]): 71.7 nM
IC50 (NAMPT): 17.4 nM

CC(C)Oc1ccc(S(=O)(=O)c2ccc(NC(=O)/C=C/c3cccnc3)cc2)cc1 [(2E)-N-(4-{[4-(propan-2-yloxy)benzene]sulfonyl}phenyl)-3-(pyridin-3-yl)prop-2-enamide]
IC50 (A2780 cells; [1]): 91.5 nM
IC50 (NAMPT): 5.4 nM

CS(=O)(=O)Nc1cccc(S(=O)(=O)c2ccc(NC(=O)/C=C/c3cccnc3)cc2)c1 [(2E)-N-{4-[(3-methanesulfonamidobenzene)sulfonyl]phenyl}-3-(pyridin-3-yl)prop-2-enamide]
IC50 (A2780 cells; [1]): 100 to 1000 nM
IC50 (NAMPT): 7.5 nM

CCOc1ccc(S(=O)(=O)c2ccc(NC(=O)/C=C/c3cccnc3)cc2)cc1 [(2E)-N-{4-[(4-ethoxybenzene)sulfonyl]phenyl}-3-(pyridin-3-yl)prop-2-enamide]
IC50 (A2780 cells; [1]): 100 to 1000 nM
IC50 (NAMPT): 27.4 nM

O=C(/C=C/c1cccnc1)Nc1ccc(S(=O)(=O)c2ccc(F)cc2)cc1 [(2E)-N-{4-[(4-fluorobenzene)sulfonyl]phenyl}-3-(pyridin-3-yl)prop-2-enamide]
IC50 (A2780 cells; [1]): 158 nM
IC50 (NAMPT): 2 nM

O=C(/C=C/c1cccnc1)Nc1ccc(S(=O)(=O)c2cccc(Cl)c2)cc1 [(2E)-N-{4-[(3-chlorobenzene)sulfonyl]phenyl}-3-(pyridin-3-yl)prop-2-enamide]
IC50 (A2780 cells): 182 nM
IC50 (NAMPT): 122 nM

O=C(/C=C/c1cccnc1)Nc1ccc(S(=O)(=O)c2cccc(-n3cccn3)c2)cc1 [(2E)-N-(4-{[3-(1H-pyrazol-1-yl)benzene]sulfonyl}phenyl)-3-(pyridin-3-yl)prop-2-enamide]
IC50 (A2780 cells; [1]): 88 nM
IC50 (NAMPT): 4.8 nM

O=C(/C=C/c1cccnc1)Nc1ccc(S(=O)(=O)c2ccccc2OC(F)(F)F)cc1 [(2E)-3-(pyridin-3-yl)-N-(4-{[2-(trifluoromethoxy)benzene]sulfonyl}phenyl)prop-2-enamide]
IC50 (A2780 cells; [1]): 15.7 nM
IC50 (NAMPT): 3.6 nM

CCNC(=O)c1ccc(S(=O)(=O)c2ccc(NC(=O)/C=C/c3cccnc3)cc2)cc1 [N-ethyl-4-({4-[(2E)-3-(pyridin-3-yl)prop-2-enamido]benzene}sulfonyl)benzamide]
IC50 (A2780 cells; [1]): 100 to 1000 nM
IC50 (NAMPT): 14.7 nM

CCCOc1ccc(S(=O)(=O)c2ccc(NC(=O)/C=C/c3cccnc3)cc2)cc1Cl [(2E)-N-{4-[(3-chloro-4-propoxybenzene)sulfonyl]phenyl}-3-(pyridin-3-yl)prop-2-enamide]
IC50 (A2780 cells; [1]): 100 to 1000 nM
IC50 (NAMPT): 5.6 nM

O=C(/C=C/c1cccnc1)Nc1ccc(S(=O)(=O)c2ccc(C(F)(F)F)c(Cl)c2)cc1 [(2E)-N-(4-{[3-chloro-4-(trifluoromethyl)benzene]sulfonyl}phenyl)-3-(pyridin-3-yl)prop-2-enamide]
IC50 (A2780 cells; [1]): 100 to 1000 nM
IC50 (NAMPT): 43.4 nM

NS(=O)(=O)c1cccc(S(=O)(=O)c2ccc(NC(=O)/C=C/c3cccnc3)cc2)c1 [(2E)-3-(pyridin-3-yl)-N-{4-[(3-sulfamoylbenzene)sulfonyl]phenyl}prop-2-enamide]
IC50 (A2780 cells; [1]): 100 to 1000 nM
IC50 (NAMPT): 9.9 nM

COc1cc(F)cc(S(=O)(=O)c2ccc(NC(=O)/C=C/c3cccnc3)cc2)c1 [(2E)-N-{4-[(3-fluoro-5-methoxybenzene)sulfonyl]phenyl}-3-(pyridin-3-yl)prop-2-enamide]
IC50 (A2780 cells; [1]): 68.1 nM
IC50 (NAMPT): 3.2 nM

Cc1cc(C(F)(F)F)ccc1S(=O)(=O)c1ccc(NC(=O)/C=C/c2cccnc2)cc1 [(2E)-N-(4-{[2-methyl-4-(trifluoromethyl)benzene]sulfonyl}phenyl)-3-(pyridin-3-yl)prop-2-enamide]
IC50 (A2780 cells; [1]): 100 to 1000 nM
IC50 (NAMPT): 62.8 nM

CCCOc1ccc(S(=O)(=O)c2ccc(NC(=O)/C=C/c3cccnc3)cc2)cc1F [(2E)-N-{4-[(3-fluoro-4-propoxybenzene)sulfonyl]phenyl}-3-(pyridin-3-yl)prop-2-enamide]
IC50 (A2780 cells; [1]): 100 to 1000 nM
IC50 (NAMPT): 40.9 nM

COCc1cccc(S(=O)(=O)c2ccc(NC(=O)/C=C/c3cccnc3)cc2)c1 [(2E)-N-(4-{[3-(methoxymethyl)benzene]sulfonyl}phenyl)-3-(pyridin-3-yl)prop-2-enamide]
IC50 (A2780 cells; [1]): 78 nM
IC50 (NAMPT): 7.7 nM

Cc1cncc(S(=O)(=O)c2ccc(NC(=O)/C=C/c3cccnc3)cc2)c1 [(2E)-N-[4-(5-methylpyridine-3-sulfonyl)phenyl]-3-(pyridin-3-yl)prop-2-enamide]
IC50 (A2780 cells; [1]): 74.4 nM
IC50 (NAMPT): 18.1 nM

CCOc1ccc(Cl)cc1S(=O)(=O)c1ccc(NC(=O)/C=C/c2cccnc2)cc1 [(2E)-N-{4-[(5-chloro-2-ethoxybenzene)sulfonyl]phenyl}-3-(pyridin-3-yl)prop-2-enamide]
IC50 (A2780 cells; [1]): 5.59 nM
IC50 (NAMPT): 12.3 nM

Cc1ccc(S(=O)(=O)c2ccc(NC(=O)/C=C/c3cccnc3)cc2)s1 [(2E)-N-[4-(5-methylthiophene-2-sulfonyl)phenyl]-3-(pyridin-3-yl)prop-2-enamide]
IC50 (A2780 cells; [1]): 100 to 1000 nM
IC50 (NAMPT): 16.6 nM

CN(C)c1ccc(S(=O)(=O)c2ccc(NC(=O)/C=C/c3cccnc3)cc2)cn1 [(2E)-N-{4-[6-(dimethylamino)pyridine-3-sulfonyl]phenyl}-3-(pyridin-3-yl)prop-2-enamide]
IC50 (A2780 cells; [1]): 78.1 nM
IC50 (NAMPT): 5.1 nM

CCOCc1ccc(S(=O)(=O)c2ccc(NC(=O)/C=C/c3cccnc3)cc2)cc1 [(2E)-N-(4-{[4-(ethoxymethyl)benzene]sulfonyl}phenyl)-3-(pyridin-3-yl)prop-2-enamide]
IC50 (A2780 cells; [1]): 100 to 1000 nM
IC50 (NAMPT): 7.8 nM
